Assay results published in patent US11584801B2, “Anti-5T4 antibodies and antibody-drug conjugates” (Byondis B.V., priority 2015, dated 2023).

B1: 899 chimeric (conjugate)
VH: QSVEESGGRLVTPGTPLTLTCTVSGFSLSSYTMSWVRQACGKGLEYIGIISSSDGTWYANWVKGRFTISKTSTTVDLKMTSLTTEDTATYFCARDGTGNKYYTWDRLDLWGQGTLVTVSS
VL: NIVMTQTPSPVSGAVGGTVTINCQASQSIYNELSWYQQKPGQPPKLLIYYASTLASGVSSRFKGSGSGTQFTLTISGVESVDAATYYCQQGYSSSNVDNVFGGGTEVVVK

How the values were obtained:
PA-1 cells = assay: In vitro cytotoxicity in PA-1 cells; assay type: cell-based, human
MDA-MB-468 cells = assay: In vitro cytotoxicity in MDA-MB-468 cells; assay type: cell-based, human
[1] = Hydrophobicity by analytical HIC; assay type: physicochemical
Protocol: For analytical HIC, 5-10 μl of sample (1 mg/ml) was injected onto a TSKgel Butyl-NPR column (4.6 mm ID×3.5 cm L, Tosoh Bioscience, cat. nr. 14947). The elution method consisted of a linear gradient from 100% Buffer A (25 mM sodium phosphate, 1.5 M ammonium sulphate, pH 6.95) to 100% of Buffer B (25 mM sodium phosphate, pH 6.95, 20% isopropanol) at 0.4 ml/min over 20 minutes. A Waters Acquity H-Class UPLC system equipped with PDA-detector and Empower software was used. Absorbance was measured at 214 nm and the retention time of ADCs was determined.

Molecule | IC50 (PA-1 cells) | IC50 (MDA-MB-468 cells) | MDA-MB-468 Efficacy (MDA-MB-468 cells) | RTDAR0 ([1]; analytical HIC retention time of DAR0 species) | RTDAR2 ([1]; analytical HIC retention time of DAR2 species) | RTDAR2 − RTDAR0 ([1]; increase in HIC retention time upon conjugation of two linker drugs)
Rituximab-vc-seco-DUBA: non-binding control ADC | 8.32 nM | 32.9 nM | 91% | – | – | –
B1 | – | – | – | 6.5 | 10.3 | 3.8
